pEC50: −log10 of the molar value.
Biological target: T1, ΔF508-CFTR (Homo sapiens, UniProt P13569, DEL508-508)
T1 construct: expressed in transfected cells
Test: Membrane potential optical (FRET/VIPR) assay, identification of potentiator compounds
Format: cell-based
Settings: Table 3, assay not given; for % Activity: relative efficacy
Summary of the method: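 Double-addition potentiator screen: compound delivered in gluconate-substituted Cl^--free medium, membrane potential followed via CC2-DMPE/DiSBAC2(3) FRET on VIPR. Cells were ΔF508-CFTR-expressing NIH3T3 mouse fibroblasts, held 2 h at 37° C. then 24 h at 27° C. before assay.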

T1 sequence (P13569 with tags, fused parts or gaps DEL508-508): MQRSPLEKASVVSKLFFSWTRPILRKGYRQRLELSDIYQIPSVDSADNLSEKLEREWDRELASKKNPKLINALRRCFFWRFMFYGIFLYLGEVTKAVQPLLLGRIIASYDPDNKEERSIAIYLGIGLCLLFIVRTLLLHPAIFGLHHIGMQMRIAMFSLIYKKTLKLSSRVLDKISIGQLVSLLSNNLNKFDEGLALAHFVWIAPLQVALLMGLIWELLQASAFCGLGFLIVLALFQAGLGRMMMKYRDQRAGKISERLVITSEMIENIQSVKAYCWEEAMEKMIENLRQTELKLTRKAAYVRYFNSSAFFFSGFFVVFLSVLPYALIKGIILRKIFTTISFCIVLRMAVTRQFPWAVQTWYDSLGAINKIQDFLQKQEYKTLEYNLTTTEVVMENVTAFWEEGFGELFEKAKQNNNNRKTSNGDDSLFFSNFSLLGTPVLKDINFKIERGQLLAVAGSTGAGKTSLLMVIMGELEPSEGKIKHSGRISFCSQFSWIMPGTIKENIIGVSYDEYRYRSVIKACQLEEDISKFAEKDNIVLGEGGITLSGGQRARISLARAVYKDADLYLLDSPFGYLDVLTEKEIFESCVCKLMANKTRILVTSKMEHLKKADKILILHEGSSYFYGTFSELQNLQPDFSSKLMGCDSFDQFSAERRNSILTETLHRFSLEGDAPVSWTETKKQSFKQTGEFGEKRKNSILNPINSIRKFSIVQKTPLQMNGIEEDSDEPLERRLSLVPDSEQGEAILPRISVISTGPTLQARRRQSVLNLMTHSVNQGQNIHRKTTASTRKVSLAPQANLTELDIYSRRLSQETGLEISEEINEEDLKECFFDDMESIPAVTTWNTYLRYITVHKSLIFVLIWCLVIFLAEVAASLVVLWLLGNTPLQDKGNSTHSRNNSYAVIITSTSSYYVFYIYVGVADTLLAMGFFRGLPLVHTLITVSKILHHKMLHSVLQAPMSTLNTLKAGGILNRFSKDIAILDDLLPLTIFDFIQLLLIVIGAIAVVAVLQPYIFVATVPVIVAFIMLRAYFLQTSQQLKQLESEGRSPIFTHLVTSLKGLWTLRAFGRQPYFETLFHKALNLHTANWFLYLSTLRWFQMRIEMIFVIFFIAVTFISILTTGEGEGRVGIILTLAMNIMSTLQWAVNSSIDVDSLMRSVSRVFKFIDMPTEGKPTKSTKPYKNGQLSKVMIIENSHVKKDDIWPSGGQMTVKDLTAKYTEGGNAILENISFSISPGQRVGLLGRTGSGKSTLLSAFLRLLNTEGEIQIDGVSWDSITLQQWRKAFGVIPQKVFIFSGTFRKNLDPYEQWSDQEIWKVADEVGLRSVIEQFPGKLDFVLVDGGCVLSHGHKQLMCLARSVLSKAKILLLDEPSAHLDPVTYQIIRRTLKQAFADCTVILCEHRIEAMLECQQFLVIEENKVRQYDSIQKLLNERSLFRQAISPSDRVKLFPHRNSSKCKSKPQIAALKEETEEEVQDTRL

SMILES	pEC50	% Activity
COc1ccccc1-c1ccccc1NC(=O)c1c[nH]c2ccccc2c1=O [Compound 355, N-[2-(2-methoxyphenyl)phenyl]-4-oxo-1H-quinoline-3-carboxamide]	> 5.00	++ (between 25% to 100%)
CCCc1ccc(NC)cc1NC(=O)c1c[nH]c2ccccc2c1=O [Compound 356, N-(5-methylamino-2-propyl-phenyl)-4-oxo-1H-quinoline-3-carboxamide]	> 5.00	++ (between 25% to 100%)
CC(C)c1c[nH]c2cc(NC(=O)c3c[nH]c4ccccc4c3=O)ccc12 [Compound 357, N-(3-isopropyl-1H-indol-6-yl)-4-oxo-1H-quinoline-3-carboxamide]	> 5.00	++ (between 25% to 100%)
O=C(Nc1ccc2cc[nH]c2c1)c1cnc2ccc(Cl)cc2c1O [Compound 358, 6-chloro-4-hydroxy-N-(1H-indol-6-yl)quinoline-3-carboxamide]	> 5.00	++ (between 25% to 100%)
CN(C)CCS(=O)(=O)Nc1cc(NC(=O)c2c[nH]c3ccccc3c2=O)cc(C(F)(F)F)c1 [Compound 359, N-[3-(2-dimethylaminoethylsulfonylamino)-5-(trifluoromethyl)phenyl]-4-oxo-1H-quinoline-3-carboxamide]	4.60 to 5.00	++ (between 25% to 100%)
O=C(Nc1ccc(OC(F)F)cc1)c1c[nH]c2ccccc2c1=O [Compound 360, N-[4-(difluoromethoxy)phenyl]-4-oxo-1H-quinoline-3-carboxamide]	> 5.00	++ (between 25% to 100%)
COc1ccc(OC)c(-c2ccccc2NC(=O)c2c[nH]c3ccccc3c2=O)c1 [Compound 361, N-[2-(2,5-dimethoxyphenyl)phenyl]-4-oxo-1H-quinoline-3-carboxamide]		+++ (>100%)
CC(C)(C)c1ccc(NC(=O)c2c[nH]c3ccccc3c2=O)c(Cl)c1 [Compound 362, N-(2-chloro-4-tert-butyl-phenyl)-4-oxo-1H-quinoline-3-carboxamide]	> 5.00	++ (between 25% to 100%)
COc1cccc(-c2ccccc2NC(=O)c2c[nH]c3ccccc3c2=O)c1F [Compound 363, N-[2-(2-fluoro-3-methoxy-phenyl)phenyl]-4-oxo-1H-quinoline-3-carboxamide]	> 5.00	+++ (>100%)
Cc1ccc2cccc(NC(=O)c3c[nH]c4ccccc4c3=O)c2n1 [Compound 364, N-(2-methyl-8-quinolyl)-4-oxo-1H-quinoline-3-carboxamide]	> 5.00	++ (between 25% to 100%)
CC(=O)c1ccccc1NC(=O)c1c[nH]c2ccccc2c1=O [Compound 365, N-(2-acetylphenyl)-4-oxo-1H-quinoline-3-carboxamide]	4.60 to 5.00	++ (between 25% to 100%)
O=C(Nc1ccccc1-c1ccc(C(F)(F)F)cc1)c1c[nH]c2ccccc2c1=O [Compound 366, 4-oxo-N-[2-[4-(trifluoromethyl)phenyl]phenyl]-1H-quinoline-3-carboxamide]	> 5.00	++ (between 25% to 100%)
O=C(Nc1ccccc1-c1cc(Cl)cc(Cl)c1)c1c[nH]c2ccccc2c1=O [Compound 367, N-[2-(3,5-dichlorophenyl)phenyl]-4-oxo-1H-quinoline-3-carboxamide]	> 5.00	++ (between 25% to 100%)
CCCOc1ccc(NC(=O)c2c[nH]c3ccccc3c2=O)cc1N [Compound 368, N-(3-amino-4-propoxy-phenyl)-4-oxo-1H-quinoline-3-carboxamide]	> 5.00	++ (between 25% to 100%)
N#Cc1cc(Cl)cc(Cl)c1NC(=O)c1c[nH]c2ccccc2c1=O [Compound 369, N-(2,4-dichloro-6-cyano-phenyl)-4-oxo-1H-quinoline-3-carboxamide]	4.60 to 5.00	+ (<25%)
O=C(Nc1cccc(Cl)c1)c1c[nH]c2ccccc2c1=O [Compound 370, N-(3-chlorophenyl)-4-oxo-1H-quinoline-3-carboxamide]	> 5.00	++ (between 25% to 100%)
O=C(Nc1ccccc1SC(F)(F)F)c1c[nH]c2ccccc2c1=O [Compound 371, 4-oxo-N-[2-(trifluoromethylsulfanyl)phenyl]-1H-quinoline-3-carboxamide]	> 5.00	++ (between 25% to 100%)
CC1CCN(c2ccccc2NC(=O)c2c[nH]c3ccccc3c2=O)CC1 [Compound 372, N-[2-(4-methyl-1-piperidyl)phenyl]-4-oxo-1H-quinoline-3-carboxamide]	> 5.00	++ (between 25% to 100%)
O=C(Nc1cccc2c1CCC2)c1c[nH]c2ccccc2c1=O [Compound 373, N-indan-4-yl-4-oxo-1H-quinoline-3-carboxamide]	> 5.00	++ (between 25% to 100%)
CSc1nc2ccccc2c(O)c1C(=O)Nc1ccc2cc[nH]c2c1 [Compound 374, 4-hydroxy-N-(1H-indol-6-yl)-2-methylsulfanyl-quinoline-3-carboxamide]	4.22 to 4.60	+ (<25%)
O=C(Nc1ccc2c(c1)CCCC2)c1c[nH]c2ccccc2c1=O [Compound 375, 1,4-dihydro-N-(1,2,3,4-tetrahydronaphthalen-6-yl)-4-oxoquinoline-3-carboxamide]	> 5.00	++ (between 25% to 100%)
O=C(Nc1ccc2oc(-c3ccccc3)nc2c1)c1c[nH]c2ccccc2c1=O [Compound 376, 4-oxo-N-(2-phenylbenzooxazol-5-yl)-1H-quinoline-3-carboxamide]	4.22 to 4.60	+ (<25%)
O=C(Nc1ccc2cc[nH]c2c1)c1cnc2c(F)cc(F)cc2c1O [Compound 377, 6,8-difluoro-4-hydroxy-N-(1H-indol-6-yl)quinoline-3-carboxamide]	4.60 to 5.00	++ (between 25% to 100%)
COc1ccc(NC(=O)c2c[nH]c3ccccc3c2=O)cc1N [Compound 378, N-(3-amino-4-methoxy-phenyl)-4-oxo-1H-quinoline-3-carboxamide]	4.60 to 5.00	++ (between 25% to 100%)
CC(=O)Nc1cc(NC(=O)c2c[nH]c3ccccc3c2=O)cc(C(F)(F)F)c1 [Compound 379, N-[3-acetylamino-5-(trifluoromethyl)phenyl]-4-oxo-1H-quinoline-3-carboxamide]	4.60 to 5.00	++ (between 25% to 100%)
CCOc1ccccc1NC(=O)c1c[nH]c2ccccc2c1=O [Compound 380, N-(2-ethoxyphenyl)-4-oxo-1H-quinoline-3-carboxamide]	> 5.00	++ (between 25% to 100%)
CC(C)(C)c1cc2cc[nH]c2cc1NC(=O)c1c[nH]c2ccccc2c1=O [Compound 381, 4-oxo-N-(5-tert-butyl-1H-indol-6-yl)-1H-quinoline-3-carboxamide]	> 5.00	++ (between 25% to 100%)
CCCc1ccc(NC(=O)c2c[nH]c3ccccc3c2=O)cc1NC(=O)OCC [Compound 382, [5-[(4-oxo-1H-quinolin-3-yl)carbonylamino]-2-propyl-phenyl]aminoformic acid ethyl ester]	> 5.00	++ (between 25% to 100%)
